Source: US8680052B1, “Methods of treating, reducing the incidence of, and/or preventing ischemic events” (The Medicines Company, priority 2013, dated 2014)
Where two headings read alike, the source gives them in different places.

Tested on: patients with acute coronary syndromes undergoing PCI
[1] = 48-hour, MITT Without STEMI, exploratory

Protocol: Patients were eligible for enrollment if they had stable angina, unstable angina, or non-ST-segment elevation (NSTE) MI with obstructive coronary artery disease and were scheduled to undergo PCI.
The infusion began within 30 minutes prior to PCI and continued for at least 2 hours or until the conclusion of the index procedure, whichever was longer. At the treating physician's discretion, the infusion could be continued for 4 hours.
All patients received aspirin 75-325 mg per local site standards. Adjunctive anticoagulants (unfractionated heparin, low molecular weight heparin, bivalirudin, or fondaparinux) and the procedural use of glycoprotein IIb/IIIa inhibitors were determined by the treating physician.
The primary efficacy endpoint was the 48-hour composite of all-cause mortality, MI, or ischemia-driven revascularization. Prespecified secondary efficacy endpoints included the composite of mortality or MI at 48 hours and 30 days; the composite of mortality, MI, or ischemia-driven revascularization at 30 days; the components of the composite endpoints at 48 hours and 30 days; stroke at 48 hours; abrupt closure, threatened abrupt closure, need for urgent coronary artery bypass grafting, or unsuccessful procedure during the index PCI; acute (24 hours) and 48 hours stent thrombosis; and all-cause mortality at 6 months and 1 year.
Rates of MI and ischemia-driven revascularization up to 30 days following the index procedure were assessed. Ischemia-driven revascularization was defined as symptoms of myocardial ischemia leading to urgent (within 24 hours of the last episode of ischemia) revascularization, which must have occurred after the index procedure concluded (i.e., guidewire removal). New electrocardiographic changes, acute pulmonary edema, ventricular arrhythmias, or hemodynamic instability could also constitute evidence of ischemia.
MI was defined by a new Q wave (duration >0.03 seconds) in two contiguous electrocardiographic leads or elevations in creatine kinase (CK) and CK-MB, including a rise of CK-MB≧3 times the local upper limit or normal and, when biomarkers were elevated prior to PCI, an additional 50% above baseline. One baseline troponin measurement was required for patients undergoing urgent PCI. Measurements of CK-MB were obtained at 2, 10, 17, and 24 hours post-PCI.
The primary efficacy analysis was to be determined in the modified intent-to-treat (mITT) population, defined as all randomized patients (excluding STEMI cohort) who received at least one dose of study drug and underwent the index PCI. The safety population consisted of all randomized patients who received any study drug. Patients in the safety analyses were assigned to a treatment arm based on treatment received, not as randomized.

COC(=O)[C@H](c1ccccc1Cl)N1CCc2sccc2C1 [Clopidogrel, clopidogrel, reference compound]
All-cause mortality (48-hour, MITT Without STEMI): 5 (0.1)
IDR (48-hour, MITT Without STEMI): 23 (0.6)
MI (48-hour, MITT Without STEMI): 256 (6.6)
Mortality/MI/IDR (primary endpoint) (48-hour, MITT Without STEMI): 276 (7.1)
Q-wave MI (48-hour, MITT Without STEMI): 10 (0.3)
Stent thrombosis (48-hour, MITT Without STEMI): 11 (0.3)
Stroke (48-hour, MITT Without STEMI): 7 (0.2)
Mortality/Q-wave MI/IDR [1]: 34 (0.9)
Mortality/Q-wave MI/Stent thrombosis [1]: 23 (0.6)
All-cause mortality (48 hours, ITT): 11 (0.2) no. (%)
IDR (48 hours, ITT): 31 (0.7) no. (%)
MI (48 hours, ITT): 265 (6.0) no. (%)
Mortality/MI/IDR (48 hours, ITT): 297 (6.7) no. (%)
Mortality/Q-wave MI/IDR (48 hours, ITT): 48 (1.1) no. (%)
Mortality/Q-wave MI/Stent thrombosis (48 hours, ITT): 33 (0.7) no. (%)
Q-wave MI (48 hours, ITT): 10 (0.2) no. (%)
Stent thrombosis (48 hours, ITT): 15 (0.3) no. (%)
Stroke (48 hours, ITT): 8 (0.2) no. (%)
All-cause mortality (48 hours, ITT With STEMI): 5 (1.0) no. (%)
IDR (48 hours, ITT With STEMI): 8 (1.6) no. (%)
MI (48 hours, ITT With STEMI): 9 (1.8) no. (%)
Mortality/MI/IDR (48 hours, ITT With STEMI): 20 (3.9) no. (%)
Mortality/Q-wave MI/IDR (48 hours, ITT With STEMI): 13 (2.6) no. (%)
Mortality/Q-wave MI/Stent thrombosis (48 hours, ITT With STEMI): 9 (1.8) no. (%)
Q-wave MI (48 hours, ITT With STEMI): 0 (0.0) no. (%)
Stent thrombosis (48 hours, ITT With STEMI): 4 (0.8) no. (%)
Stroke (48 hours, ITT With STEMI): 1 (0.2) no. (%)
All-cause mortality (48 hours, ITT Without STEMI): 6 (0.2) no. (%)
IDR (48 hours, ITT Without STEMI): 23 (0.6) no. (%)
MI (48 hours, ITT Without STEMI): 256 (6.5) no. (%)
Mortality/MI/IDR (48 hours, ITT Without STEMI): 277 (7.1) no. (%)
Mortality/Q-wave MI/IDR (48 hours, ITT Without STEMI): 35 (0.9) no. (%)
Mortality/Q-wave MI/Stent thrombosis (48 hours, ITT Without STEMI): 24 (0.6) no. (%)
Q-wave MI (48 hours, ITT Without STEMI): 10 (0.3) no. (%)
Stent thrombosis (48 hours, ITT Without STEMI): 11 (0.3) no. (%)
Stroke (48 hours, ITT Without STEMI): 7 (0.2) no. (%)
All-cause mortality (48 hours, MITT): 9 (0.2) no. (%)
IDR (48 hours, MITT): 30 (0.7) no. (%)
MI (48 hours, MITT): 264 (6.1) no. (%)
Mortality/MI/IDR (48 hours, MITT): 293 (6.8) no. (%)
Mortality/Q-wave MI/IDR (48 hours, MITT): 45 (1.0) no. (%)
Mortality/Q-wave MI/Stent thrombosis (48 hours, MITT): 31 (0.7) no. (%)
Q-wave MI (48 hours, MITT): 10 (0.2) no. (%)
Stent thrombosis (48 hours, MITT): 15 (0.3) no. (%)
Stroke (48 hours, MITT): 7 (0.2) no. (%)
All-cause mortality (48 hours, MITT With STEMI): 4 (0.9) no. (%)
IDR (48 hours, MITT With STEMI): 7 (1.6) no. (%)
MI (48 hours, MITT With STEMI): 8 (1.8) no. (%)
Mortality/MI/IDR (48 hours, MITT With STEMI): 17 (3.8) no. (%)
Mortality/Q-wave MI/IDR (48 hours, MITT With STEMI): 11 (2.5) no. (%)
Mortality/Q-wave MI/Stent thrombosis (48 hours, MITT With STEMI): 8 (1.8) no. (%)
Q-wave MI (48 hours, MITT With STEMI): 0 (0.0) no. (%)
Stent thrombosis (48 hours, MITT With STEMI): 4 (0.9) no. (%)
Stroke (48 hours, MITT With STEMI): 0 (0.0) no. (%)
All-cause mortality (48 hours, MITT Without STEMI): 5 (0.1) no. (%)
IDR (48 hours, MITT Without STEMI): 23 (0.6) no. (%)
MI (48 hours, MITT Without STEMI): 256 (6.6) no. (%)
Mortality/MI/IDR (Prespecified primary endpoint) (48 hours, MITT Without STEMI): 276 (7.1) no. (%)
Mortality/Q-wave MI/IDR (48 hours, MITT Without STEMI): 34 (0.9) no. (%)
Mortality/Q-wave MI/Stent thrombosis (48 hours, MITT Without STEMI): 23 (0.6) no. (%)
Q-wave MI (48 hours, MITT Without STEMI): 10 (0.3) no. (%)
Stent thrombosis (48 hours, MITT Without STEMI): 11 (0.3) no. (%)
Stroke (48 hours, MITT Without STEMI): 7 (0.2) no. (%)
primary composite of all-cause mortality, MI, or ischemia-driven revascularization (48 hours, MITT Without STEMI): 7.1%
All-cause mortality (48 hours, Safety population): 9 (0.2) no. (%)
IDR (48 hours, Safety population): 30 (0.7) no. (%)
MI (48 hours, Safety population): 265 (6.1) no. (%)
Mortality/MI/IDR (48 hours, Safety population): 294 (6.7) no. (%)
Mortality/Q-wave MI/IDR (48 hours, Safety population): 45 (1.0) no. (%)
Mortality/Q-wave MI/Stent thrombosis (48 hours, Safety population): 31 (0.7) no. (%)
Q-wave MI (48 hours, Safety population): 10 (0.2) no. (%)
Stent thrombosis (48 hours, Safety population): 15 (0.3) no. (%)
Stroke (48 hours, Safety population): 7 (0.2) no. (%)
All-cause mortality (30 days, ITT): 47 (1.1) no. (%)
IDR (30 days, ITT): 69 (1.6) no. (%)
MI (30 days, ITT): 293 (6.7) no. (%)
Mortality/MI/IDR (30 days, ITT): 373 (8.5) no. (%)
Mortality/Q-wave MI/IDR (30 days, ITT): 119 (2.7) no. (%)
Mortality/Q-wave MI/Stent thrombosis (30 days, ITT): 82 (1.9) no. (%)
Q-wave MI (30 days, ITT): 15 (0.3) no. (%)
Stent thrombosis (30 days, ITT): 30 (0.7) no. (%)
All-cause mortality (30 days, ITT With STEMI): 16 (3.2) no. (%)
